# In patent publication US20050032822A1, “Dithiocarbamate derivatives and their use as antibacterial agents” (priority 2001, published 2005):
# Tested on: M. tuberculosis H37Rv and two drug-resistant clinical isolates
# Assay: MIC and MBC against M. tuberculosis in liquid Shkolnikova medium / Lowenstein-Jensen medium
# Type: cell-based, Mycobacterium tuberculosis
# Conditions: for MIC (minimal inhibitory concentration) against Mycobacterium tuberculosis: mean values of the three strains (H37Rv and two drug-resistant clinical isolates), 14 days at 37° C.; for MBC (minimal bactericidal concentration) against Mycobacterium tuberculosis: mean values of the three strains, read after 21-28 days on solid drug free Lowenstein-Jensen medium
compound,measurement,value
"CN(C)C(=S)Sc1ncnc(N(C)C)c1[N+](=O)[O-] [Subst. Nr. 8, 4-dimethylamino-6-dimethyldithiocarbamoyl-5-nitropyrimidine]",MIC (minimal inhibitory concentration) against Mycobacterium tuberculosis,7.81 µg/mL
same,MBC (minimal bactericidal concentration) against Mycobacterium tuberculosis,12.5 µg/mL
"CCOc1nc(C)nc(SC(=S)N2CCCC2)c1[N+](=O)[O-] [Subst. Nr. 10, 4-ethoxy-2-methyl-6-tetramethylenedithiocarbamoyl-5-nitropyrimidine]",MIC (minimal inhibitory concentration) against Mycobacterium tuberculosis,5.21 µg/mL
same,MBC (minimal bactericidal concentration) against Mycobacterium tuberculosis,8.33 µg/mL
"CCOc1nc(C)nc(SC(=S)N(CC)CC)c1[N+](=O)[O-] [Subst. Nr. 6, 4-ethoxy-2-methyl-6-diethyldithiocarbamoyl-5-nitropyrimidine]",MIC (minimal inhibitory concentration) against Mycobacterium tuberculosis,20.8 µg/mL
same,MBC (minimal bactericidal concentration) against Mycobacterium tuberculosis,41.7 µg/mL
"CNc1ncnc(SC(=S)N2CCCC2)c1[N+](=O)[O-] [Subst. Nr. 12, 4-methylamino-6-tetramethylenedithiocarbamoyl-5-nitropyrimidine]",MIC (minimal inhibitory concentration) against Mycobacterium tuberculosis,3.64 µg/mL
same,MBC (minimal bactericidal concentration) against Mycobacterium tuberculosis,8.33 µg/mL
"CN(C)C(=S)Sc1c(C#N)cc([N+](=O)[O-])cc1[N+](=O)[O-] [Subst. Nr. 9, 3,5-dinitro-2-dimethyldithiocarbamoylbenzonitrile]",MIC (minimal inhibitory concentration) against Mycobacterium tuberculosis,4.78 µg/mL
same,MBC (minimal bactericidal concentration) against Mycobacterium tuberculosis,6.25 µg/mL
"CCN(CC)C(=S)Sc1ncnc(NC2CC2)c1[N+](=O)[O-] [Subst. Nr. 2, 4-cyclopropylamino-6-diethyldithiocarbamoyl-5-nitropyrimidine]",MIC (minimal inhibitory concentration) against Mycobacterium tuberculosis,20.8 µg/mL
same,MBC (minimal bactericidal concentration) against Mycobacterium tuberculosis,29.1 µg/mL
"CCN(CC)C(=S)Sc1c(C#N)cc([N+](=O)[O-])cc1[N+](=O)[O-] [Subst. Nr. 3, 3,5-dinitro-2-diethyldithiocarbamoylbenzonitril]",MIC (minimal inhibitory concentration) against Mycobacterium tuberculosis,5.37 µg/mL
same,MBC (minimal bactericidal concentration) against Mycobacterium tuberculosis,7.29 µg/mL
"CCN(CC)C(=S)Sc1ncnc(NC)c1[N+](=O)[O-] [Subst. Nr. 4, 4-methylamino-6-diethyldithiocarbamoyl-5-nitropyrimidine]",MIC (minimal inhibitory concentration) against Mycobacterium tuberculosis,6.25 µg/mL
same,MBC (minimal bactericidal concentration) against Mycobacterium tuberculosis,12.5 µg/mL
4-isopropylamino-6-diethyldithiocarbamoyl-5-nitropyrimidine [Subst. Nr. 1],MIC (minimal inhibitory concentration) against Mycobacterium tuberculosis,31.3 µg/mL
same,MBC (minimal bactericidal concentration) against Mycobacterium tuberculosis,100.0 µg/mL
"CCN(CC)C(=S)Sc1ncnc(N(C)O)c1[N+](=O)[O-] [Subst. Nr. 5, 4-methylhydroxyamino-6-diethyldithiocarbamoyl-5-nitropyrimidine]",MIC (minimal inhibitory concentration) against Mycobacterium tuberculosis,9.38 µg/mL
same,MBC (minimal bactericidal concentration) against Mycobacterium tuberculosis,12.5 µg/mL
"CCCOc1ncnc(SC(=S)N(C)C)c1[N+](=O)[O-] [Subst. Nr. 11, 4-propoxy-6-dimethyldithiocarbamoyl-5-nitropyrimidine]",MIC (minimal inhibitory concentration) against Mycobacterium tuberculosis,9.37 µg/mL
same,MBC (minimal bactericidal concentration) against Mycobacterium tuberculosis,12.5 µg/mL
"CNc1ncnc(SC(=S)N(C)C)c1[N+](=O)[O-] [Subst. Nr. 7, 4-methylamino-6-dimethyldithiocarbamoyl-5-nitropyrimidine]",MIC (minimal inhibitory concentration) against Mycobacterium tuberculosis,7.78 µg/mL
same,MBC (minimal bactericidal concentration) against Mycobacterium tuberculosis,10.42 µg/mL
"CN(C)c1ncnc(SC(=S)N2CCCC2)c1[N+](=O)[O-] [Subst. Nr. 13, 4-dimethylamino-6-tetramethylenedithiocarbamoyl-5-nitropyrimidine]",MIC (minimal inhibitory concentration) against Mycobacterium tuberculosis,3.12 µg/mL
same,MBC (minimal bactericidal concentration) against Mycobacterium tuberculosis,6.25 µg/mL
